{
  "source": "patent US8734788B2",
  "about": "“Composition and method for treatment of reperfusion injury and tissue damage” (OPSONA Therapeutics Ltd, priority 2007, dated 2014)",
  "key": {"[1]": {"system": "IL-1 production in LPS-stimulated human peripheral blood monocytes", "details": "cited from earlier work"}, "[2]": {"system": "myocardial ischemia/reperfusion (I/R) injury in C57BL6 mice", "experiment": "Infarct size after myocardial ischemia/reperfusion in mice (Evans blue/TTC staining)", "format": "in vivo", "details": "for effect on infarct size (in words): administered 5 minutes prior to reperfusion, versus saline/PBS", "protocol": "Male C57BL6 mice (8-12 weeks old, 25-30 grams of weight) underwent 30 minutes of ischemia followed by 24 hours of reperfusion.\nExperimental compounds were administered 5 minutes prior to reperfusion via the tail vein. […] OPN-301 (OPN301) is a murine IgG1 anti-TLR2 antibody (mouse Toll-like Receptor 2 (TLR2) antibody, clone T2.5, HyCult Biotechnology b.v., Cell Sciences, Canton, USA: catalogue number 1054).\nMice were anesthetized with a mixture of […]™ (N-(1-phenethyl-4-piperidyl)-N-phenyl-propanamide) 0.05 mg/kg, DORMICUM™ (Midazolum, 8-chloro-6-(2-fluorophenyl)-1-methyl-4H-imidazo[1,5-a][1,4]benzodiazepine) 5 mg/kg and DOMITOR™ (medetomidine hydrochlorine) 0.5 mg/kg (intraperitoneal injection). Atropine ((8-methyl-8-azabicyclo[3.2.1]oct-3-yl) 3-hydroxy-2-phenylpropanoate) 0.05 mg/kg was subcutaneously administered before coronary ligation. Core body temperature was maintained between 36° C. and 37.5° C. during surgery by continuous monitoring with a rectal thermometer and automatic heating blanket. Mice were […] and ventilated (Harvard Apparatus Inc.) with 100% oxygen. The left anterior descending (LAD) coronary artery was ligated using an 8-0 vicryl suture with a section of polyethylene-10 tubing placed over the LAD.\nIschemia was confirmed by bleaching of the myocardium. Reperfusion was initiated by releasing the ligature and removing the polyethylene-10 tubing. Reperfusion of the endangered myocardium is characterized by typical hyperaemia in the first few minutes. A piece of the loosened suture was left in place in order to determine ischemic area. The chest wall was closed and the animals received subcutaneously […]™ (atipamezole hydrochloride, a sedation reversal agent for DOMITOR™ (medetomidine hydrochlorine)) 2.5 mg/kg, ANEXATE™ (Flumazenil (also known as flumazepil)) 0.5 mg/kg and […]™ (buprenorphine) 0.1 mg/kg.\nInfarct Size (IS) is expressed as a percentage of the Area-At-Risk (AAR) and total Left Ventricle (LV). The ratio of AAR/LV is a measure for the extent of myocardial tissue that underwent ischemia and reperfusion (i.e. endangered area). The ratio IS/AAR is an accurate measurement to determine infarct size within endangered myocardium and is the primary endpoint from which the efficacy of treatment is addressed. The secondary endpoint IS/LV ratio is the percentage infarcted area within the total left ventricular wall.\nTo determine the AAR, the LAD was ligated once again (at the level marked by the suture left in place) and 4% Evans blue dye was injected via the thoracic aorta in a retrograde fashion. Hearts were rapidly explanted, rinsed in 0.9% saline and wrapped in a clear food wrap and frozen at −20° C. for 1 hour. Hearts were then mechanically sliced into five 1 mm cross sections. Heart sections were incubated in 1% triphenyltetrazolium chloride (Sigma-Aldrich) at 37° C. for 15 minutes before placing them in formaldehyde for another 15 minutes. Viable tissue stained red and infarcted tissue appeared white. Heart sections were digitally photographed (CANON EOS 400D) under a microscope (CARL ZEISS™). IS, MR and total LV area were measured using ImageJ software (version 1.34).\nAll data are expressed as Mean±SD. After skewness±SD and kurtosis±SD confirmed normality, a one-way ANOVA with Bonferroni adjustment (Table 2) and a Dunnett's T test (2 sided) (Table 4). was used to test differences between groups. Kolmogorov-Smirnov test performed if abnormal distribution was suspected (i.e. when kurtosis and skewness values are twice their standard deviations). All statistical analyses were performed using SPSS version 13.0 for Windows (SPSS, Chicago, USA) and p<0.05 was considered significant."}, "[3]": {"details": "Table 1, 30 min ischemia/24 h reperfusion, i.v. 5 min prior to reperfusion, mAb and IgG 10 mg/kg, SB239063 0.5 mg/kg, n=10"}, "[4]": {"details": "Table 2, Bonferroni, (J) group IgG isotype"}, "[5]": {"details": "Table 2, Bonferroni, (J) group PBS"}, "[6]": {"details": "Table 2, Bonferroni, (J) group exp. mAB"}, "[7]": {"details": "Table 3 (amended, saline control set), 30 min ischemia/24 h reperfusion, n=10"}, "[8]": {"details": "Table 5, Dunnett, (J) group Saline"}},
  "note": "Entries after “also recorded” stand apart in the source; their conditions may differ.",
  "data": [
    {"substance": "trans-1-(4-Hydroxycyclohexyl)-4-(fluorophenyl)-5-(2-methoxypyrimidin-4-yl) imidazole [SB239063]", "values": [
      {"measurement": "IC50", "setting": "[1]", "value": 120, "unit": "nM"},
      {"measurement": "IS_AAR (infarct size as percentage of Area At Risk), Mean", "setting": "[2]; [3]", "value": 31.4000, "unit": "%"},
      {"measurement": "IS_LV (infarct size as percentage of total Left Ventricle), Mean", "setting": "[2]; [3]", "value": 12.0100, "unit": "%"},
      {"measurement": "IS_AAR Mean Difference (I-J)", "setting": "[2]; [4]", "value": ".25400"},
      {"measurement": "IS_LV Mean Difference (I-J)", "setting": "[2]; [4]", "value": "−.85200"},
      {"measurement": "IS_AAR Mean Difference (I-J)", "setting": "[2]; [5]", "value": "−4.185"},
      {"measurement": "IS_LV Mean Difference (I-J)", "setting": "[2]; [5]", "value": "−5.3"},
      {"measurement": "IS_AAR Mean Difference (I-J)", "setting": "[2]; [6]", "value": "13.51(*)"},
      {"measurement": "IS_LV Mean Difference (I-J)", "setting": "[2]; [6]", "value": "5.908(*)"},
      {"measurement": "IS/AAR Mean", "setting": "[2]; [7]", "value": 31.7250, "unit": "%"},
      {"measurement": "IS/LV Mean", "setting": "[2]; [7]", "value": 12.3220, "unit": "%"},
      {"measurement": "IS_AAR Mean Difference (I-J)", "setting": "[2]; Table 4, Dunnett, (J) group Saline, n=10 groups", "value": "−2.776"},
      {"measurement": "IS_AAR Mean Difference (I-J)", "setting": "[2]; [8]", "value": "−2.776"},
      {"measurement": "IS_LV Mean Difference (I-J)", "setting": "[2]; [8]", "value": "−1.74"},
      {"measurement": "effect on infarct size (in words)", "setting": "[2]", "value": "did not reduce infarct size"},
      {"measurement": "effect on infarct size (in words)", "setting": "[2]; listed as p38 inhibitor", "value": "no reduction of infarct size; also recorded: no difference in infarct size"},
      {"measurement": "difference in mean IS/LV", "setting": "[2]; versus PBS treated mice, not statistically significant (FIG. 7)", "value": "−26", "unit": "%"}
    ]}
  ]
}
